Experimental findings from ChEMBL document CHEMBL4842332, “Eriocitrin Contained in Lemon Peel Ameliorates Disuse Muscle Atrophy by Suppressing the Expression of Atrogin-1 and MuRF-1 in Denervated Mice” (2021) are described below.

Activity calls are given as the source filed them. The calls are words filed in the database; no cut-off is given here.

For test [1], the species on record is Mus musculus. Briefly: Suppression of denervation-induced gastrocnemius muscle weight loss in C57BL/6NCrSlc mouse. The class given is functional, organism-based.
For test [2], the species on record is Mus musculus. Briefly: Upregulation of Atrogin-1 mRNA expression in denervated C57BL/6NCrSlc mouse by RT-PCR analysis. The class given is functional.
For test [3], the species on record is Mus musculus. Briefly: Antioxidant activity in denervated C57BL/6NCrSlc mouse assessed as […] in GSSG/GSH ratio in gastrocnemius muscle measured after 30 mins. The class given is functional, organism-based.
The species named for test [4] is Mus musculus. Briefly: Effect of PPARdelta mRNA expression in denervated C57BL/6NCrSlc mouse by RT-PCR analysis. The class given is functional, organism-based.
The species entered for test [5] is Mus musculus. Briefly: Effect on PGC1a mRNA expression in denervated C57BL/6NCrSlc mouse by RT-PCR analysis. The class given is functional.
For test [6], the species on record is Mus musculus. Briefly: Antioxidant activity in denervated C57BL/6NCrSlc mouse assessed as […] in lipid peroxide level in gastrocnemius muscle measured after 30 mins. The class given is functional, organism-based.
The species named for test [7] is Mus musculus. Briefly: Upregulation of IGF-1 mRNA expression in denervated C57BL/6NCrSlc mouse by RT-PCR analysis. The test is classed as functional.
Test [8] is filed under the species Mus musculus. Briefly: Downregulation of MuRF-1 mRNA expression in denervated C57BL/6NCrSlc mouse by RT-PCR analysis. The class given is functional.
Test [9] is filed under the species Mus musculus. Briefly: Upregulation of SOD1 mRNA expression in denervated C57BL/6NCrSlc mouse by RT-PCR analysis. The class given is functional.
Test [10] is filed under the species Mus musculus. Briefly: Effect of PPARgamma mRNA expression in denervated C57BL/6NCrSlc mouse by RT-PCR analysis. The class given is functional, organism-based.
The species named for test [11] is Mus musculus. Briefly: Toxicity in denervated C57BL/6NCrSlc mouse assessed as effect on body weight (reference value: 25.74 g). The class given is functional.
For test [12], the species on record is Mus musculus. Briefly: Downregulation of FOXO1 mRNA expression in denervated C57BL/6NCrSlc mouse by RT-PCR analysis. The class given is functional.

With `C[C@@H]1O[C@@H](OC[C@H]2O[C@@H](Oc3cc(O)c4c(c3)O[C@H](c3ccc(O)c(O)c3)CC4=O)[C@H](O)[C@@H](O)[C@@H]2O)[C@H](O)[C@H](O)[C@H]1O` [ERIOCITRIN], the result in the test listed under Mus musculus [1], in the test filed under Mus musculus [3], in the test filed under Mus musculus [6], in the test listed under Mus musculus [7], in the test listed under Mus musculus [8] and in the test filed under Mus musculus [9] was Active. In the test filed under Mus musculus [12], the outcome was Active. Also, the outcome in the test listed under Mus musculus [2], in the test filed under Mus musculus [4], in the test filed under Mus musculus [5] and in the test filed under Mus musculus [10] was inactive. Besides, the Activity in the test listed under Mus musculus [11] worked out at 25.37 g.
